Reference: ChEMBL document CHEMBL6096630, “Enhancing therapeutic efficacy in homologous recombination-proficient pancreatic cancer via the combination of PARP1-PROTAC and a BRD4 inhibitor” (Bioorg Med Chem, 2024)
Activity calls are given as the source filed them. The rule behind the calls is not given here.

Legend:
[1] = system: PANC-1; assay: Induction of apoptosis in human PANC-1 cells assessed as viable cells at 5 uM incubated for 48 hrs by Annexin V-FITC/PI staining based flow cytometry (reference value: 91.64 %); assay type: functional; conditions: read-out: Activity
[2] = system: PANC-1; assay: Induction of cell cycle arrest in human PANC-1 cells assessed as accumulation at G2 phase at 2.5 uM incubated for 24 hrs by PI staining based flow cytometry (reference value: 9.36 %); assay type: functional
[3] = Toxicity in BALB/c mouse xenografted with human PANC-1 cells assessed as pathological changes in kidney at 40 mg/kg, ip for 4 weeks administered for 5 days consecutively and 2 days without treatment on every week in presence of JQ1 by H and E staining based analysis; assay type: organism-based; conditions: in vivo, 672 h
[4] = system: PANC-1; assay: Induction of cell cycle arrest in human PANC-1 cells assessed as accumulation at G2/M phase incubated for 24 hrs by PI staining based flow cytometry; assay type: functional; conditions: dose 0.6-2 µM
[5] = Toxicity in BALB/c mouse xenografted with human PANC-1 cells assessed as pathological changes in lung at 40 mg/kg, ip for 4 weeks administered for 5 days consecutively and 2 days without treatment on every week by H and E staining based analysis; assay type: organism-based; conditions: in vivo, 672 h
[6] = Toxicity in BALB/c mouse xenografted with human PANC-1 cells assessed as pathological changes in heart at 40 mg/kg, ip for 4 weeks administered for 5 days consecutively and 2 days without treatment on every week by H and E staining based analysis; assay type: organism-based; conditions: in vivo, 672 h
[7] = system: PANC-1; assay: Inhibition of colony formation in human PANC-1 cells at 2 uM incubated for 14 days by crystal violet staining based analysis; assay type: functional, cell-based; conditions: time 14.0 day
[8] = system: PANC-1; assay: Induction of cell cycle arrest in human PANC-1 cells assessed as accumulation at S phase at 2.5 uM incubated for 24 hrs by PI staining based flow cytometry (reference value: 38.94 %); assay type: functional
[9] = system: PANC-1; assay: Induction of apoptosis in human PANC-1 cells assessed as early apoptotic cells at 2 uM incubated for 48 hrs in presence of JQ1 by Annexin V-FITC/PI staining based flow cytometry (reference value: 1.41 %); assay type: functional
[10] = system: PANC-1; assay: Induction of apoptosis in human PANC-1 cells assessed as early apoptotic cells at 5 uM incubated for 48 hrs by Annexin V-FITC/PI staining based flow cytometry (reference value: 1.41 %); assay type: functional
[11] = system: PANC-1; assay: Antitumor activity against human PANC-1 cells xenografted in BALB/c mouse at 40 mg/kg, ip for 4 weeks administered for 5 days consecutively and 2 days without treatment on every week in presence of JQ1 relative to control; assay type: functional; conditions: PANC-1, 672 h, read-out: TGI
[12] = system: PANC-1; assay: Antitumor activity against human PANC-1 cells xenografted in BALB/c mouse assessed as inhibition of tumor volume at 40 mg/kg, ip for 4 weeks administered for 5 days consecutively and 2 days without treatment on every week in presence of JQ1; assay type: functional, organism-based
[13] = system: PANC-1; assay: Induction of apoptosis in human PANC-1 cells assessed as early apoptotic cells at 1.2 uM incubated for 48 hrs by Annexin V-FITC/PI staining based flow cytometry (reference value: 1.41 %); assay type: functional
[14] = system: PANC-1; assay: Induction of apoptosis in human PANC-1 cells assessed as late apoptotic cells at 10 uM incubated for 48 hrs by Annexin V-FITC/PI staining based flow cytometry (reference value: 3.87 %); assay type: functional
[15] = system: PANC-1; assay: Induction of apoptosis in human PANC-1 cells assessed as necrotic cells at 2.5 uM incubated for 48 hrs by Annexin V-FITC/PI staining based flow cytometry (reference value: 3.09 %); assay type: functional
[16] = system: PANC-1; assay: Induction of apoptosis in human PANC-1 cells assessed as viable cells at 0.6 uM incubated for 48 hrs by Annexin V-FITC/PI staining based flow cytometry (reference value: 91.64 %); assay type: functional; conditions: read-out: Activity
[17] = system: PANC-1; assay: Induction of cell cycle arrest in human PANC-1 cells assessed as accumulation at S phase at 1.2 uM incubated for 24 hrs by PI staining based flow cytometry (reference value: 38.94 %); assay type: functional
[18] = system: PANC-1; assay: Induction of cell cycle arrest in human PANC-1 cells assessed as accumulation at S phase at 2 uM incubated for 24 hrs in presence of JQ1 by PI staining based flow cytometry (reference value: 38.94 %); assay type: functional
[19] = Toxicity in BALB/c mouse xenografted with human PANC-1 cells assessed as pathological changes in liver at 40 mg/kg, ip for 4 weeks administered for 5 days consecutively and 2 days without treatment on every week by H and E staining based analysis; assay type: organism-based; conditions: in vivo, 672 h
[20] = system: PANC-1; assay: Induction of apoptosis in human PANC-1 cells assessed as viable cells at 2 uM incubated for 48 hrs in presence of JQ1 by Annexin V-FITC/PI staining based flow cytometry (reference value: 91.64 %); assay type: functional; conditions: read-out: Activity
[21] = Toxicity in BALB/c mouse xenografted with human PANC-1 cells assessed as body weight loss at 40 mg/kg, ip for 4 weeks administered for 5 days consecutively and 2 days without treatment on every week; assay type: organism-based; conditions: in vivo, 672 h
[22] = system: PANC-1; assay: Induction of cell cycle arrest in human PANC-1 cells assessed as accumulation at G1 phase at 0.6 uM incubated for 24 hrs by PI staining based flow cytometry (reference value: 51.70 %); assay type: functional
[23] = system: PANC-1; assay: Induction of cell cycle arrest in human PANC-1 cells assessed as accumulation at G1 phase at 10 uM incubated for 24 hrs by PI staining based flow cytometry (reference value: 51.70 %); assay type: functional
[24] = target: Bromodomain-containing protein 4 (Homo sapiens) (UniProt O60885); assay: Inhibition of BRD4 in human PANC-1 cells at 2 uM incubated for 24 hrs in presence of JQ1 by immunofluorescence based analysis; assay type: cell-based
[25] = system: PANC-1; assay: Induction of apoptosis in human PANC-1 cells assessed as late apoptotic cells at 0.6 uM incubated for 48 hrs by Annexin V-FITC/PI staining based flow cytometry (reference value: 3.87 %); assay type: functional
[26] = system: PANC-1; assay: Induction of cell cycle arrest in human PANC-1 cells assessed as accumulation at G1 phase at 1.2 uM incubated for 24 hrs by PI staining based flow cytometry (reference value: 51.70 %); assay type: functional
[27] = Toxicity in BALB/c mouse xenografted with human PANC-1 cells assessed as pathological changes in liver at 40 mg/kg, ip for 4 weeks administered for 5 days consecutively and 2 days without treatment on every week in presence of JQ1 by H and E staining based analysis; assay type: organism-based; conditions: in vivo, 672 h
[28] = Toxicity in BALB/c mouse xenografted with human PANC-1 cells assessed as pathological changes in heart at 40 mg/kg, ip for 4 weeks administered for 5 days consecutively and 2 days without treatment on every week in presence of JQ1 by H and E staining based analysis; assay type: organism-based; conditions: in vivo, 672 h
[29] = Toxicity in BALB/c mouse xenografted with human PANC-1 cells assessed as drug tolerance at 40 mg/kg, ip for 4 weeks administered for 5 days consecutively and 2 days without treatment on every week; assay type: organism-based; conditions: in vivo, 672 h
[30] = system: PANC-1; assay: Induction of apoptosis in human PANC-1 cells assessed as necrotic cells at 2 uM incubated for 48 hrs in presence of JQ1 by Annexin V-FITC/PI staining based flow cytometry (reference value: 3.09 %); assay type: functional
[31] = system: PANC-1; assay: Induction of apoptosis in human PANC-1 cells assessed as necrotic cells at 1.2 uM incubated for 48 hrs by Annexin V-FITC/PI staining based flow cytometry (reference value: 3.09 %); assay type: functional

SMILES | viability at 5 µM [1] [%] | Activity [2] [%] | Activity [3] | Activity [4] | Activity [5] | Activity [6] | inhibition [7] | Activity [8] [%] | Activity [9] [%] | Activity [10] [%] | inhibition in vivo at 40 mg/kg [11] [%] | inhibition [12] | Activity [13] [%] | Activity [14] [%] | Activity [15] [%] | viability at 0.6 µM [16] [%] | Activity [17] [%] | Activity [18] [%] | Activity [19] | viability at 2 µM [20] [%] | also measured
O=C1CCC(N2C(=O)c3cccc(NC(=O)CNCCCCCCCCCCC(=O)N4CCN(C(=O)c5cc(Cc6n[nH]c(=O)c7ccccc67)ccc5F)CC4)c3C2=O)C(=O)N1 (configuration not stated) | 86.7 | 12.98 | Non-toxic | Dose-dependent-effect | Non-toxic | Non-toxic | Active | 43.26 | 8.77 | 4.76 | ≤ 98.5 | Active | 3.8 | 5.33 | 2.55 | 88.9 | 42.94 | 26.81 | Non-toxic | 64.3 | Activity [21]: Non-toxic; Activity [22]: 45.34%; Activity [23]: 43.14%; inhibition [24]: Active; Activity [25]: 3.89%; Activity [26]: 45.72%; Activity [27]: Non-toxic; Activity [28]: Non-toxic; Activity [29]: Non-toxic; Activity [30]: 5%; Activity [31]: 2.74%
O=C(c1cc(Cc2n[nH]c(=O)c3ccccc23)ccc1F)N1CCN(C(=O)C2CC2)CC1 [OLAPARIB] | 88.2 | 14.19 | Non-toxic | Dose-dependent-effect | Non-toxic | Non-toxic | Active | 41.49 | 5.44 | 4.21 | 80.7 | Active | 2.88 | 5.35 | 3.45 | 90.3 | 41 | 25.85 | Non-toxic | 68.3 | Activity [21]: Non-toxic; Activity [22]: 46.78%; Activity [23]: 35.31%; inhibition [24]: Active; Activity [25]: 4.21%; Activity [26]: 46.59%; Activity [27]: Non-toxic; Activity [28]: Non-toxic; Activity [29]: Non-toxic; Activity [30]: 4.77%; Activity [31]: 4.05%
